From patent publication US20250051293A1, “NOVEL OXADIAZOLE DERIVATIVE AND USE THEREOF” (CELROS BIOTECH, priority 2021, published 2025)

Columns and labels:
[1] = system: MPTP-induced Parkinson's disease; test: MPTP-induced Parkinson's disease mouse model; format: in vivo, mice; conditions: for MPTP-induced increase in number of microglia (Iba1+ cells) in the substantia nigra and striatum / density of Th+ fibers in the striatum / number of dopaminergic neurons (Th+ cells) in the substantia nigra: 30 mg/kg oral for 8 days; for density of Th+ fibers in the striatum / number of dopaminergic neurons (Th+ cells) in the substantia nigra / pole test T-total / pole test T-turn: compared to the vehicle-treated group; for pole test T-total / pole test T-turn: Day 6 after MPTP, 30 mg/kg oral
Method: To evaluate the effect of compounds of Example 1 and Example 2 on MPTP (1-methyl-4-phenyl-1,2,3,6-tetrahydropyridine hydrochloride; Sigma-Aldrich)-induced Parkinson's disease, C57BL/6 male mice (9 weeks old) were randomly divided into three groups. • saline+vehicle • MPTP+vehicle • MPTP+compound of Example 1 or […] (30 mg/kg)
To induce Parkinson's disease, mice were intraperitoneally injected with MPTP (25 mg/kg) four times at 2-hour intervals, while control mice were treated with an equal volume of saline. The compounds of Example 1 or Example 2 were dissolved in a solvent consisting of 10% DMAC (dimethyl acetamide, Sigma-Aldrich), 10% Tween 80 (Sigma-Aldrich) and 80% saline (JW Pharmaceuticals). Mice were orally administered with 30 mg/kg of the compound of Example 1 or Example 2 starting 1 day prior to MPTP injection for 8 days.
Seven days after MPTP administration (one day after the last administration of the compound of Example 1 or Example 2), experimental animals were sacrificed by perfusion with saline (JW Pharmaceuticals) followed by 10% formalin (Sigma-Aldrich), and brain tissues were obtained. The tissues were cut into 30 μm thick slices using a cryostat (Leica) and stored in an anti-freezing solution (30% sucrose, 1% polyvinylpyrrolidone, and 30% ethylene glycol in 1×PBS) at −20° C.
Anti-tyrosine hydroxylase antibody (1:2000-4000, ABCAOM) was used to detect dopaminergic neurons and anti-Iba1 antibody (1:1000, Wako) was used to measure microglia. Biotinylated goat anti-rabbit antibody (VECTOR, BA-1000) was used as a secondary antibody and ABC solution (VECTOR, BA-1000) was used. The immunoreactive sections were then incubated with 3-3′ diaminobenzidine (DAB, Dako) to change the color to brown.
For the substantia nigra, six coronal sections, one every 150 μm, between −2.80 mm and −3.80 mm bregma were used, and for the striatum, three coronal sections between +0.98 mm and +0.50 mm bregma were collected. The coronal sections were stained with anti-tyrosine hydroxylase antibody or anti-Iba1 antibody and then analyzed by counting the number of stained cells or using ImagePro plus 7.0 software.
The mice were moved to a home cage where they were placed head up in the top of a 60 cm vertical pole with a diameter of 1 cm, and were then allowed to descend themselves and stay for about 15 seconds in the home cage.
The above procedure was repeated three times, all of which were videotaped, and the time for the mouse's head to turn completely downward (T-turn) and total time to descend to the floor (T-total) were analyzed.

[2] = system: U87; test: Mouse model xenografted with brain tumor glioblastoma U87; format: in vivo, mice
Method: To confirm the therapeutic effect on brain tumor glioblastoma, U87 (5×10^4), a human brain tumor cell line, was xenografted into the brains of mice to establish a brain tumor model, followed by oral administration of the drugs.
Different experimental groups were evaluated for each compound.
First, with respect to the compound of Example 1, the experimental groups were divided into Vehicle (n=3) and the compound of Example 1, 50 mg/kg (n=3) and the administered with the drug orally 5 times a week 20 days after U87 xenografting.
With respect to the compound of Example 2, the experimental groups were divided into Vehicle (n=9), TMZ 5 mg/kg (Temozolomide, n=10, 2 times per week), the compound of Example 2, 50 mg/kg (n=8, 5 times per week), and combination (TMZ+the compound of Example 2, n=7), and began receiving the drug 20 days after U87 xenografting.

[3] = PAMPA-BBB assay; format: in vitro ADME; conditions: incubation 4 hr, pH 7.4, 25° C., U.V, read-out: Permeability Pe
Method: The parallel artificial membrane permeability assay (PAMPA) was performed to determine the brain barrier blood (BBB) permeability. […] For the Blank measurement, the donor buffer was dispensed into a high sensitivity UV plate at 150 μl per well and the UV values were measured (Blank sample). For the initial value measurement, the mixture in the deep well plate was dispensed 150 μl per well into the UV plate and the UV values were measured (initial sample). Next, 200 μl of the test compound mixture was dispensed onto the donor plate of the PAMPA sandwich, and the acceptor plate of the PAMPA sandwich was inverted and the membrane was coated with 5 μl of BBB-lipid solution. Then, 200 μl of acceptor sink buffer was added to each well of the acceptor plate, and the acceptor plate and donor plate were combined and incubated at 25° C. for 4 hours. […] Finally, the permeability (Pe(10^−6 cm/sec)) was analyzed using the PAMPA explore program. The experiment was performed in three replicates. The permeability of the material was analyzed by UV measurement and LC-MS/MS, the specific conditions of which are described below.

[4] = Metabolic stability in human liver microsomes; format: in vitro ADME; conditions: human liver microsomes 0.5 mg/ml, 1 μM, 30 minutes, 37° C., NADPH
Method: The stability of a drug may be predicted by using liver microsomes to determine the extent to which the drug is metabolized in the liver. […] Thus, a metabolic stability verification experiment was performed on the oxadiazole derivatives according to The present disclosure.
Specifically, sample treatment human liver microsomes (0.5 mg/ml), 0.1 M phosphate buffer (pH 7.4), and test compound at a concentration of 1 μM were added, and the mixture was pre-incubated at 37° C. for 5 minutes, followed by addition of NADPH Regeneration system solution and incubation at 37° C. for 30 minutes. An acetonitrile solution containing an internal standard (chlorpropamide) was then added to terminate the reaction, followed by centrifugation for 5 minutes (14,000 rpm, 4° C.). Then, the supernatant was injected into the LC-MS/MS system to analyze the substrate drug to evaluate the metabolic stability of the two compounds.
The HPLC column was an Acquity UPLC BEH Amide column (2.1×100 mm, 1.7 μm particle size; Waters, Ireland). The mobile phases were distilled water containing 0.1% formic acid (A) and acetonitrile containing 0.1% formic acid (B). Data analysis was performed using Analyst software (version 1.6.3).

[5] = Example 1 study: 50 mg/kg orally 5 times a week

Row | SMILES | MPTP-induced increase in number of microglia (Iba1+ cells) in the substantia nigra and striatum [1] | density of Th+ fibers in the striatum [1] | number of dopaminergic neurons (Th+ cells) in the substantia nigra [1] | pole test T-total [1] | pole test T-turn [1] | brain tumor growth (MRI) [2, 5] | extension of median survival compared to the vehicle group [2, 5] | median survival ([2]; Example 1 study: 50 mg/kg orally 5 times a week from 20 days after U87 xenografting, vehicle 31 days) | Papp at 4 h, 50 μM ([3]; 50 μM) | Human (% ) remaining, microsomal stability [4] | tumor growth rate (MRI) ([2]; Example 2 study: Example 2 50 mg/kg 5 times per week, TMZ 5 mg/kg 2 times per week) | median survival time ([2]; Example 2 study: Example 2 50 mg/kg 5 times per week, TMZ 5 mg/kg 2 times per week, from 20 days after xenografting, vehicle 42 days) | Papp at 4 h, 10 μM ([3]; 10 μM)
1 | O=C(Nc1nnc(-c2cccc(Cl)c2)o1)c1cc(F)cc(C(F)(F)F)c1 [Example 1, N-(5-(3-chlorophenyl)-1,3,4-oxadiazol-2-yl)-3-fluoro-5-(trifluoromethyl)benzamide] | effectively reduced | higher | higher | significant decrease | decrease | inhibition of brain tumor growth | 17 days | 48 days | > 0.4 ×10⁻⁶ cm/s | 81.7% | – | – | –
2 | O=C(Nc1nnc(-c2ccccc2)o1)c1ccc(F)c(C(F)(F)F)c1 [Example 2, 4-fluoro-N-(5-phenyl-1,3,4-oxadiazol-2-yl)-3-(trifluoromethyl)benzamide] | effectively reduced | higher | higher | significant decrease | decrease | – | – | – | – | >100% | inhibited the tumor growth rate | 46 days | > 0.4 ×10⁻⁶ cm/s
